The target in assay [1] is purified human recombinant ATM (ataxia telangiectasia mutated), full length (Homo sapiens (Human), UniProt Q13315). The assay is described as follows: ATM kinase assay - determination of ATM inhibition (IC50 ATM), TR-FRET. It is filed as biochemical. An outline of the steps: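 Full-length enzyme, expressed in a mammalian cell line, pre-incubated 15 min with inhibitor in 25 mM HEPES pH 8.0, 10 mM Mg(CH3COO)2, 1 mM MnCl2, 0,1% BSA, 0,01% Brij 35, 5 mM DTT. Full-length cmyc-p53 (Sf21-expressed) and ATP then added, 30-35 min at 22° C. EDTA stop; p53 S15 phosphorylation read by TR-FRET antibodies.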
Background: TR-FRET usually uses a lanthanide donor and a delayed reading to cut background.

Assay [2] has as its system phosphorylation of CHK2 (phospho-Thr68) in HCT116 cells. Briefly: Cellular pCHK2 assay: bleomycin-induced phosphorylation of CHK2 (phospho-Thr68), immunofluorescence high-content analysis. It is filed as cell-based, human. As to conditions: Homo sapiens, HCT-116, 4 h, read-out: IC50 (pCHK2). An outline of the steps: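 HCT116 cells in DMEM with 10% FCS, incubated overnight at 37° C, then given compounds (1 nM to 30 μM, 0.5% DMSO) together with 10 μM bleomycin. Phospho-Thr68 CHK2 immunostained and imaged by high-content imager; nuclei with pCHK2 above background counted, cell count from propidium iodide DNA stain.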

Assay [3] concerns the target mTOR (human) (Homo sapiens (Human), UniProt P42345). The assay is described as follows: mTOR (human) kinase assay, [γ-33P-ATP] filter assay. Format: biochemical. An outline of the steps: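 Radiometric filter assay: enzyme in 50 mM HEPES pH 7.5, 1 mM EGTA, 0.01% Tween 20, 3 mM MnCl2, 2 mg/ml substrate with [γ-33P-ATP], started with MgATP. Incubated 40 min at room temperature, stopped with 3% phosphoric acid; incorporation measured on P30 filtermat by scintillation counting.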

Assay [4] deals with PI3K p110α/p85α (human) (Homo sapiens (Human), UniProt P42336). Briefly: PI3K p110α/p85α (human), non-radioactive assay (HTRF). It is filed as biochemical. Conditions: read-out: IC50 (PI3Kalpha).
The target in assay [5] is PI3K p110β/p85α (human) (Homo sapiens (Human), UniProt P42338). Briefly: PI3K p110β/p85α (human), non-radioactive assay (HTRF). Format: biochemical. An outline of the steps: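 Human p110β/p85α incubated with 10 μM phosphatidylinositol 4,5-bisphosphate and MgATP for 30 min at room temperature, stopped with EDTA plus biotinylated PIP3. HTRF detection used a Eu-anti-GST antibody, GST-GRP1 PH domain and streptavidin-APC, with signal taken as 10000×(Em665nm/Em620nm).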

Assay [6] has as its target PI3K p110δ/p85α (human) (Homo sapiens (Human), UniProt O00329). The assay is described as follows: PI3K p110δ/p85α (human), non-radioactive assay (HTRF). It is filed as biochemical. As to conditions: read-out: IC50 (PI3Kdelta).
The target in assay [7] is PI3K (p120γ) (human) (Homo sapiens (Human), UniProt P48736). The assay is described as follows: PI3K (p120γ) (human), non-radioactive assay (HTRF). It is filed as biochemical. As to conditions: read-out: IC50 (PI3Kgamma). In outline:
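Enzyme was run with 10 μM phosphatidylinositol 4,5-bisphosphate, starting the reaction with MgATP at an unspecified level, for 30 min at room temperature. The stop used EDTA plus biotinylated PIP3, and detection used Eu-anti-GST, GST-GRP1 PH domain and streptavidin-APC. Signal was taken as HTRF = 10000×(Em665nm/Em620nm).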

Structures are written as SMILES. Like-named read-outs stand apart in the source and are kept apart here.

Sequence of purified human recombinant ATM (ataxia telangiectasia mutated), full length (Q13315 whole entry, stated change not applied): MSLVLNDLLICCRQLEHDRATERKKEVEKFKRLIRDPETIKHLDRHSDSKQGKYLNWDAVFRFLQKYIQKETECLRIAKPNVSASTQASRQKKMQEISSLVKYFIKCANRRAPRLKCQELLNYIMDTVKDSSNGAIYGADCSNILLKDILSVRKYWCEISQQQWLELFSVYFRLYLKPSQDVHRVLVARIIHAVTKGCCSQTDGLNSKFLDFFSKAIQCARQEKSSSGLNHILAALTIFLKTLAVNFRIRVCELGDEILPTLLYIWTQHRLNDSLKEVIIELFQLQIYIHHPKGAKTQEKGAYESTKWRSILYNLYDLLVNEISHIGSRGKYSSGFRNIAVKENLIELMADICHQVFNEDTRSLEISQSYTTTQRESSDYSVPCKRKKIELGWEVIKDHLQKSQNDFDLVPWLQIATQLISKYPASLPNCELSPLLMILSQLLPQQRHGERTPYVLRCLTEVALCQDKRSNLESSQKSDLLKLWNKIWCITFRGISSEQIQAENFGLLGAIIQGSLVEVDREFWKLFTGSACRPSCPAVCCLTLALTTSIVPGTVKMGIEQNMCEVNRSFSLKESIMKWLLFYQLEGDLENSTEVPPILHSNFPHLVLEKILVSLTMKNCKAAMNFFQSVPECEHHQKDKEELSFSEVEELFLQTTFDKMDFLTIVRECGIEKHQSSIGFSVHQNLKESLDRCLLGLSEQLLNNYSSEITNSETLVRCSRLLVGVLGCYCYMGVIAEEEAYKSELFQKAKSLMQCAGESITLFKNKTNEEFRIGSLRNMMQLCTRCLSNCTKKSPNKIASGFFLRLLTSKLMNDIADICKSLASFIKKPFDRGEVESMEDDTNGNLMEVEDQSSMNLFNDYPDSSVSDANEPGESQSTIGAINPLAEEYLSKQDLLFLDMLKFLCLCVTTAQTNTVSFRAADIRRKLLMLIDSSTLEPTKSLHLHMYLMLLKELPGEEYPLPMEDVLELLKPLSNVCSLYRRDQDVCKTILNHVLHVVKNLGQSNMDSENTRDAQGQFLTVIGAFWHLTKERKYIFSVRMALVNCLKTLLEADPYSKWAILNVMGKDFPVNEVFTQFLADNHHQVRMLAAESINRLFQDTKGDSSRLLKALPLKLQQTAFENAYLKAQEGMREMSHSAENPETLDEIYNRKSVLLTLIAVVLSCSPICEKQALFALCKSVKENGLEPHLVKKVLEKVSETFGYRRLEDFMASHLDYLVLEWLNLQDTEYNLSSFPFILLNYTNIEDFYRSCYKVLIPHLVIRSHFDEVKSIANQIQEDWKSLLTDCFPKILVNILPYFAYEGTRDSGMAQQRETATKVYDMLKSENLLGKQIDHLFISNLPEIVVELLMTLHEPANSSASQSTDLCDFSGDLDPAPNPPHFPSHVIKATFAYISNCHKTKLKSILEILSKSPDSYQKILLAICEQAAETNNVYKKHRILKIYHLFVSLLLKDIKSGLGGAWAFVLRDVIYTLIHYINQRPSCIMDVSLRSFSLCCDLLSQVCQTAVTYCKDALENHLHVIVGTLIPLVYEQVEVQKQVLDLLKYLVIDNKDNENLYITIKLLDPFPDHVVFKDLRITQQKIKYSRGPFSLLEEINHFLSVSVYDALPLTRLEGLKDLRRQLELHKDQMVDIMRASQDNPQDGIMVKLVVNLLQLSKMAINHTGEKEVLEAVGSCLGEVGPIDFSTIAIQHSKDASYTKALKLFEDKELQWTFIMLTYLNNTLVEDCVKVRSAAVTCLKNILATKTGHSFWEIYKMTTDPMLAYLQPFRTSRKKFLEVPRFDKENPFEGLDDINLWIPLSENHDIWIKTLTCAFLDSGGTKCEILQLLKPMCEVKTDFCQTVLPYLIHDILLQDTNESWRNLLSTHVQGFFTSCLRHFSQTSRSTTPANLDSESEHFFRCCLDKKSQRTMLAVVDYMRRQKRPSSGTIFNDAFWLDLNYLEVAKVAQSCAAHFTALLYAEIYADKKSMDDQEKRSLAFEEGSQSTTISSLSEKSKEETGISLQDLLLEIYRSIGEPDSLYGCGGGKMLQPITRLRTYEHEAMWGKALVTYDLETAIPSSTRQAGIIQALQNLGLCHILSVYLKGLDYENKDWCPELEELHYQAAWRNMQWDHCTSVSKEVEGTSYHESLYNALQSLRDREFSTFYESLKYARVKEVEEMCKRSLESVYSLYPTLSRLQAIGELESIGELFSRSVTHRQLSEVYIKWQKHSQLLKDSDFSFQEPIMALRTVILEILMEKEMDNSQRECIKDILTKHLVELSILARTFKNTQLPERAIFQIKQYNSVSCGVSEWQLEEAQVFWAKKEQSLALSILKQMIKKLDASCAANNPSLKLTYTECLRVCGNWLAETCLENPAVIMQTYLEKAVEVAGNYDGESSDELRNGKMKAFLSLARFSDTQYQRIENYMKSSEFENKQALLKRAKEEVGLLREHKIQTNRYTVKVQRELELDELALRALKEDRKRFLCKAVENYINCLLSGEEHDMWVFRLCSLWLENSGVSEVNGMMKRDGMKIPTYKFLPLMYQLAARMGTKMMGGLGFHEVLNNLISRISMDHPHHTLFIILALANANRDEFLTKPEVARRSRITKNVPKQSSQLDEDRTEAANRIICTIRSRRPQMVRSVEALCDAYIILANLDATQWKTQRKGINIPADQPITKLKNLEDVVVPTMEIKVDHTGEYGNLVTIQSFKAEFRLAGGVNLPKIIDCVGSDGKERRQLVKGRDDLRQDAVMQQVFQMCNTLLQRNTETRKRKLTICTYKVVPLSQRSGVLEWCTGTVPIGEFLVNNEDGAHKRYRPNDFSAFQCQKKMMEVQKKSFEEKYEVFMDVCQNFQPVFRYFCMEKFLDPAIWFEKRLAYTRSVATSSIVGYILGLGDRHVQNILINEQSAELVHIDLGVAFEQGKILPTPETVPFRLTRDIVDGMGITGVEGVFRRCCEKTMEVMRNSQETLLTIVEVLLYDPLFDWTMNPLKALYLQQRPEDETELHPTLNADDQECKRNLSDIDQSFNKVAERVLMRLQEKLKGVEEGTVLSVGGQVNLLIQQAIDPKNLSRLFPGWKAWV
Sequence of PI3K (p120γ) (human) (P48736 whole entry, the tested form may be a part): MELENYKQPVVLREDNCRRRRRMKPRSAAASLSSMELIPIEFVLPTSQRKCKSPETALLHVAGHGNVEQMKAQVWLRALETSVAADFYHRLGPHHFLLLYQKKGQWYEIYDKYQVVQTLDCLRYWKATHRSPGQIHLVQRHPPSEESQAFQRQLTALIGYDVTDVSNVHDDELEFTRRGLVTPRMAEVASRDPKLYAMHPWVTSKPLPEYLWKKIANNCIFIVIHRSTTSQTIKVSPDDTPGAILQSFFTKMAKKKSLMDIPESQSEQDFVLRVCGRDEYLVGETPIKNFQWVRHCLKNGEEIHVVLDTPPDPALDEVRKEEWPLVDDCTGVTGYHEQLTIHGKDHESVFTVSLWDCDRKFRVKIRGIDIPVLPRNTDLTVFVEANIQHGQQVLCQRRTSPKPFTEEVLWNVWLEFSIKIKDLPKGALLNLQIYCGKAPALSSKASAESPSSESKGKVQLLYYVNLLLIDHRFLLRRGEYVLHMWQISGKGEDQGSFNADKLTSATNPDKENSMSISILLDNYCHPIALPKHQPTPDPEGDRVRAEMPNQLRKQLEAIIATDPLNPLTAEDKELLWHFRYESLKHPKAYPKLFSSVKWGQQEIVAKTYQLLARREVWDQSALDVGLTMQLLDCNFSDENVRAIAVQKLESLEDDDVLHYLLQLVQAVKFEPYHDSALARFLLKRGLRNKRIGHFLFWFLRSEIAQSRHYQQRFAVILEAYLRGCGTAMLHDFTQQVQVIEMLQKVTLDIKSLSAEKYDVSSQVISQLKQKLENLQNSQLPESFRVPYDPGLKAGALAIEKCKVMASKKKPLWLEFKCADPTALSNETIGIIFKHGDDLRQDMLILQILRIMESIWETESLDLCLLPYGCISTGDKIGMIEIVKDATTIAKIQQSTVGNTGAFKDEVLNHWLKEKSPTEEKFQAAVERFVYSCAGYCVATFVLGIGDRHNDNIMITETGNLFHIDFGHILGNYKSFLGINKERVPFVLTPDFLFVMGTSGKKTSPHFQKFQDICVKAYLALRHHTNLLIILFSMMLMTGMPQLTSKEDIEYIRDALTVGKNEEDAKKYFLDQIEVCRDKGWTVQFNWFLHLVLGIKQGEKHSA

Consider `COc1cc2ncc3c(c2cc1-c1cnn(C)c1)n(-c1ccncc1C)c(=O)n3C` [Compound Example 40, 7-Methoxy-3-methyl-8-(1-methyl-1H-pyrazol-4-yl)-1-(3-methylpyridin-4-yl)-1,3-dihydroimidazo[4,5-c] quinolin-2-one], for which the IC50 in assay [1] was below 0.01 µM; in assay [1] (10 μM ATP, substrate p53), below 0.01 µM; in assay [2], 0.2 to 1 µM; in assay [3], above 30 µM; in assay [4] it was above 30 µM; in assay [5] (read-out: IC50 (PI3Kbeta)), above 30 µM. In addition, the IC50 in assay [6] and in assay [7] was above 30 µM each time.
Turning to `COc1cc2ncc3c(c2cc1-c1cn[nH]c1)n(-c1ccnn1C)c(=O)n3C` [Compound Example 41, 7-Methoxy-3-methyl-1-(2-methyl-2H-pyrazol-3-yl)-8-(1H-pyrazol-4-yl)-1,3-dihydroimidazo[4,5-c] quinolin-2-one], the IC50 in assay [1] was below 0.01 µM; in assay [1] (10 μM ATP, substrate p53) it was below 0.01 µM; in assay [2], 0.2 to 1 µM; in assay [3], above 10 µM; in assay [4], above 30 µM; in assay [5] (read-out: IC50 (PI3Kbeta)), above 30 µM. Besides, the IC50 in assay [6] and in assay [7] was above 30 µM throughout.
As for `COc1cc2ncc3c(c2cc1-c1cnn(C)c1)n(-c1c[nH]nc1C)c(=O)n3C` [Compound Example 43, 7-Methoxy-3-methyl-1-(3-methyl-1H-pyrazol-4-yl)-8-(1-methyl-1H-pyrazol-4-yl)-1,3-dihydroimidazo[4,5-c]-quinolin-2-one], the IC50 in assay [1] is below 0.001 µM; in assay [1] (10 μM ATP, substrate p53), below 0.001 µM; in assay [2] it was 0.2 to 1 µM; in assay [3], above 30 µM; in assay [4] it was above 30 µM; in assay [5] (read-out: IC50 (PI3Kbeta)) it was above 30 µM. Moreover, the IC50 in assay [6] and in assay [7] was above 30 µM throughout.
In the case of `COc1cc2ncc3c(c2cc1-c1cnn(C)c1)n(-c1c(F)cncc1C#N)c(=O)n3C` [Compound Example 44, 5-Fluoro-4-[7-methoxy-3-methyl-8-(1-methyl-1H-pyrazol-4-yl)-2-oxo-2,3-dihydroimidazo[4,5-c]-quinolin-1-yl]nicotinonitrile], the IC50 in assay [1] was below 0.01 µM; in assay [1] (10 μM ATP, substrate p53), below 0.01 µM; in assay [2], 0.2 to 1 µM; in assay [3], above 30 µM; in assay [4] it was above 30 µM; in assay [5] (read-out: IC50 (PI3Kbeta)), above 30 µM. Also, the IC50 in assay [6] and in assay [7] was above 30 µM each time.
As for `COc1cc2ncc3c(c2cc1-c1cnn(C)c1)n(-c1ccnc(C#N)c1)c(=O)n3C` [Compound Example 45, 4-[7-Methoxy-3-methyl-8-(1-methyl-1H-pyrazol-4-yl)-2-oxo-2,3-dihydroimidazo-[4,5-c]quinolin-1-yl]pyridine-2-carbonitrile], the IC50 in assay [1] was below 0.05 µM; in assay [1] (10 μM ATP, substrate p53) it was below 0.05 µM; in assay [2], 0.2 to 1 µM; in assay [3], above 30 µM; in assay [4] it was above 30 µM; in assay [5] (read-out: IC50 (PI3Kbeta)), above 30 µM. Also, the IC50 in assay [6] and in assay [7] was above 30 µM throughout.
Regarding `COc1cc2ncc3c(c2cc1-c1cnn(C)c1)n(-c1ccncc1C#N)c(=O)n3C` [Compound Example 46, 4-[7-Methoxy-3-methyl-8-(1-methyl-1H-pyrazol-4-yl)-2-oxo-2,3-dihydroimidazo-[4,5-c]quinolin-1-yl]-nicotinonitrile], the IC50 in assay [1] was below 0.05 µM; in assay [1] (10 μM ATP, substrate p53), below 0.05 µM; in assay [2] it was 0.2 to 1 µM; in assay [3], above 30 µM; in assay [4], above 30 µM; in assay [5] (read-out: IC50 (PI3Kbeta)), above 30 µM. The IC50 in assay [6] and in assay [7] was above 30 µM in each case.
Regarding `COc1cc2ncc3c(c2cc1-c1cnn(C)c1)n(-c1nccs1)c(=O)n3C` [Compound Example 47, 7-Methoxy-3-methyl-8-(1-methyl-1H-pyrazol-4-yl)-1-thiazol-2-yl-1,3-dihydro-imidazo[4,5-c]quinolin-2-one], the IC50 was below 0.01 µM in assay [1]; below 0.01 µM in assay [1] (10 μM ATP, substrate p53); 0.2 to 1 µM in assay [2]; above 30 µM in assay [3]; above 30 µM in assay [4]; above 30 µM in assay [5] (read-out: IC50 (PI3Kbeta)). Moreover, the IC50 in assay [6] and in assay [7] was above 30 µM in each case.
For `COc1cc2ncc3c(c2cc1-c1cnn(C)c1)n(-c1ccnn1C)c(=O)n3C` [Compound Example 49, 7-Methoxy-3-methyl-1-(2-methyl-2H-pyrazol-3-yl)-8-(1-methyl-1H-pyrazol-4-yl)-1,3-dihydroimidazo[4,5-c]-quinolin-2-one], the IC50 in assay [1] was below 0.01 µM; in assay [1] (10 μM ATP, substrate p53), below 0.01 µM; in assay [2], 0.2 to 1 µM; in assay [3] it was above 30 µM; in assay [4], above 30 µM; in assay [5] (read-out: IC50 (PI3Kbeta)), above 30 µM. The IC50 in assay [6] and in assay [7] was above 30 µM in each case.
On to `COc1cc2ncc3c(c2cc1-c1cn(C)nn1)n(-c1ncccc1F)c(=O)n3C` [Compound Example 51, 1-(3-Fluoropyridin-2-yl)-7-methoxy-3-methyl-8-(1-methyl-1H-1,2,3-triazol-4-yl)-1,3-dihydroimidazo-[4,5-c]quinolin-2-one], for which the IC50 in assay [1] is below 0.01 µM; in assay [1] (10 μM ATP, substrate p53), below 0.01 µM; in assay [2] it was 0.2 to 1 µM; in assay [3], above 30 µM; in assay [4] it was above 30 µM; in assay [5] (read-out: IC50 (PI3Kbeta)), above 30 µM. For the same molecule, the IC50 in assay [6] and in assay [7] was above 30 µM in each case.
For the molecule `COc1cc2ncc3c(c2cc1-c1cnn(C)c1)n(-c1cn[nH]c1)c(=O)n3C` [Compound Example 53, 7-Methoxy-3-methyl-8-(1-methyl-1H-pyrazol-4-yl)-1-(1H-pyrazol-4-yl)-1,3-dihydroimidazo[4,5-c]-quinolin-2-one], the IC50 was below 0.01 µM in assay [1]; below 0.01 µM in assay [1] (10 μM ATP, substrate p53); 0.2 to 1 µM in assay [2]; above 30 µM in assay [3]; above 30 µM in assay [4]; above 30 µM in assay [5] (read-out: IC50 (PI3Kbeta)). The IC50 in assay [6] and in assay [7] was above 30 µM throughout.
Take `COc1cc2ncc3c(c2cc1-c1cnn(C)c1)n(-c1cnn(C2CCOCC2)c1)c(=O)n3C` [Compound Example 55, 7-Methoxy-3-methyl-8-(1-methyl-1H-pyrazol-4-yl)-1-[1-(tetrahydropyran-4-yl)-1H-pyrazol-4-yl]-1,3-dihydroimidazo[4,5-c]-quinolin-2-one]: the IC50 in assay [1] is below 0.01 µM; in assay [1] (10 μM ATP, substrate p53), below 0.01 µM; in assay [2], 0.2 to 1 µM; in assay [3], above 30 µM; in assay [4], above 30 µM; in assay [5] (read-out: IC50 (PI3Kbeta)), above 30 µM. The IC50 in assay [6] and in assay [7] was above 30 µM each time.
On to `COc1cc2ncc3c(c2cc1-c1cnn(C)c1)n(-c1cncnc1)c(=O)n3C` [Compound Example 57, 7-Methoxy-3-methyl-8-(1-methyl-1H-pyrazol-4-yl)-1-pyrimidin-5-yl-1,3-dihydro-imidazo[4,5-c]quinolin-2-one], for which the IC50 was below 0.05 µM in assay [1]; below 0.05 µM in assay [1] (10 μM ATP, substrate p53); 0.2 to 1 µM in assay [2]; above 30 µM in assay [3]; above 30 µM in assay [4]; above 30 µM in assay [5] (read-out: IC50 (PI3Kbeta)). Further, the IC50 in assay [6] and in assay [7] was above 30 µM in each case.
As to `COc1cc2ncc3c(c2cc1-c1cn[nH]c1)n(-c1cn(C)nc1C)c(=O)n3C` [Example 3], the IC50 was below 0.001 µM in assay [1]; below 0.001 µM in assay [1] (10 μM ATP, substrate p53); below 0.2 µM in assay [2]; above 5 µM in assay [3]; above 30 µM in assay [4]; above 30 µM in assay [5]. Besides, the IC50 in assay [6] and in assay [7] was above 30 µM throughout.
As to `COc1cc2ncc3c(c2cc1-c1cn[nH]c1)n(-c1ncc(F)cc1F)c(=O)n3C` [Example 6], the IC50 in assay [1] is below 0.001 µM; in assay [1] (10 μM ATP, substrate p53) it was below 0.001 µM; in assay [2], below 0.2 µM; in assay [3], above 30 µM; in assay [4] it was above 30 µM; in assay [5] it was above 30 µM. For the same molecule, the IC50 in assay [6] and in assay [7] was above 30 µM each time.

The values are drawn from patent publication US10457677B2 (priority 2015, dated 2019).
